≈ marks a conversion by molar mass, not a printed value. Entries after “also recorded” stand apart in the source; their conditions may differ. One block for each molecule: values may come before it.
Legend:
[1] = Stability in human plasma; assay type: in vitro ADME
Excerpt: (§1) The general tested characteristics of 3-(2,3,5,6-tetrafluoro-3′-trifluoromethoxy-biphenyl-4-ylcarbamoyl)-thiophene-2-carboxylic acid (PP-001) are shown below in Table 8.

[2] = Stability at pH 2, pH 7.4 and pH 8.5; assay type: physicochemical
Excerpt: as §1

[3] = LogP (measured) of PP-001; assay type: physicochemical
Excerpt: as §1

[4] = Solubility in 50 mM phosphate buffer; assay type: physicochemical
Excerpt: as §1

pKa of PP-001 = assay type: physicochemical
Excerpt: as §1

[5] = Solvent assessment for lyophilization; assay type: physicochemical; conditions: maximum of 60 vol
Experimental: Preparation and solubility of amorphous PP-001. PP-001 was treated with increasing aliquots of solvent until a maximum of 60 vol (1800 μl) was added in a HPLC vial.
Samples that formed solutions were positive pressure filtered using a PTFE syringe filter to remove any remaining solid particulates. The solutions were then flash frozen in a dry ice/acetone bath and lyophilized overnight to remove the solvent. Solids isolated post-lyophilization were analyzed by XRPD and characterized.

[6] = Solubility and solvent selection assessment; assay type: physicochemical
Experimental: PP-001 (ca. 20 mg, Batch #1) was treated with increasing aliquots of solvent until either a clear solution or maximum of 80 vol ([…]) of solvent was added. Samples were left for […] at 25° C., 300 rpm, after each solvent addition before observations were recorded. Where possible, samples were heated to 50° C. and further observations were taken. Solutions at 25 or 50° C. were cooled to 5° C. at 0.1° C./min, 300 rpm and held overnight. Any suspensions at 50° C. were subjected to maturation cycling between RT/50° C. (4 hours per cycle). Solvents unsuitable for heating to 50° C. or cooling to 5° C. were subjected to evaporation, antisolvent addition at RT or maturation at RT, depending on the solvent.
After 24 h, any solutions at 5° C. were subjected to evaporation at RT with the lid removed. Samples subjected to evaporation were analyzed once dry. The remaining suspensions were left for 3 days at conditions before being extracted using an SPE cartridge and frit under positive pressure filtration.

[7] = Stability in artificial gastric juice, simulated intestinal fluid and PBS; assay type: in vitro ADME
Excerpt: as §1

Oral bioavailability = conditions: in vivo, depending on formulation used
Excerpt: as §1

[8] = Intrinsic dissolution rate (IDR) in pH 7.4 phosphate buffer; assay type: physicochemical; conditions: for XRPD post-IDR: after IDR in pH 7.4 phosphate buffer; for Dissolution rate (pH 7.4 buffer): pH 7.4 phosphate buffer
Excerpt: In addition, the thermodynamic solubility and the IDR of the two forms was compared in selected media. In addition to the competitive slurrying, Form A and Form B were both submitted to thermodynamic solubility measurements in FaSSIF media, as well as IDR in pH 7.4 phosphate buffer. The results are shown in Table 19 The full reports for both measurements can be found in Appendix 2—Analytical Service Reports.

[9] = Competitive slurrying of Form A and Form B; assay type: physicochemical; conditions: competitive slurrying of Form A and Form B in a range of solvents at 5, 25 and 50° C.
Experimental: The aim of this work was to investigate the order of stability of the scaled-up Form A and Form B via competitive slurrying of the materials in a range of solvents at 5° C., 25° C. and 50° C.
The proposed solvents were aliquoted (1 ml) into HPLC vials and held at 5° C., 25° C. and 50° C. respectively, equilibrating at 300 rpm. […] The saturated solutions were allowed to equilibrate overnight.
Approximately 300 mg of Form B, prepared as described previously in Example 5, and the Form A were added to a 20 ml scintillation vial. The vial was subjected to turbula mixing for over 2 hours to ensure the mixture was homogenous. Approximately 30 mg of a mixture of Form A and Form B was added to a series HPLC vials. The vials were placed at 5, 25 and 50° C., 300 rpm. The suspensions prepared previously were filtered through a PTFE syringe directly into each vial to suspend the prepared form mixture in a saturated solution of the target solvent. Polymorph turnover was investigated by taking a 30-50 μl aliquot of the suspension and analyzing by XRPD.

[10] = Accelerated storage stability (XRPD & HPLC); assay type: physicochemical
Experimental: Chemical Purity Determination by HPLC. Purity analysis was performed on an Agilent HP1100/Infinity II 1260 series system equipped with a diode array detector and using OpenLAB software. The full method details are provided below in Table 12: [table] HPLC indicated the material to have a purity of 99.6% (FIG. 12A). […] The sample was left for an additional 22 days (total 30 days storage) and re-analyzed by XRPD, appearing as Form A, lacking the additional peaks previously observed (FIG. 13B). It was therefore possible that contamination of sample on the instrument in the previous 8-day timepoint was the likely cause of the additional peaks, rather than a form chance or degradation. […] (92 J/g) (FIG. 16). PLM and SEM images indicate the particles to be a series of spherical agglomerates (ca. 50 to 100 μm in diameter), which consist of small (<10 μm) plate-like crystals (FIGS. 17A-17B). HPLC analysis indicated the sample maintained a high purity of 99.5% (FIG. 18A). […] There is a small hysteresis between adsorption and desorption. The sample was unchanged by XRPD post-GVS analysis. […]

[11] = Thermodynamic solubility in FaSSIF; assay type: physicochemical; conditions: for XRPD post-TS (residual solid): after thermodynamic solubility in FaSSIF
Experimental: Thermodynamic Aqueous Solubility. Aqueous solubility was determined by suspending sufficient compound in relevant media to give a maximum final concentration of ≥10 mg/ml of the parent free-form of the compound. The suspension was equilibrated at 25° C., on a Heidolph plate shaker set to 750 rpm for 24 hours. The pH of the saturated solution was then measured, and the suspension filtered through a glass fiber C filter (particle retention 1.2 μm) and diluted appropriately. Quantitation was by HPLC with reference to a standard solution of approximately 0.15 mg/ml in DMSO. Different volumes of the standard, diluted and undiluted sample solutions were injected. The solubility was calculated using the peak areas determined by integration of the peak found at the same retention time as the principal peak in the standard injection. [table] In addition to the competitive slurrying, Form A and Form B were both submitted to thermodynamic solubility measurements in FaSSIF media, as well as IDR in pH 7.4 phosphate buffer. The results are shown in Table 19 The full reports for both measurements can be found in Appendix 2—Analytical Service Reports.

[12] = Gravimetric Vapor Sorption (GVS); assay type: physicochemical; conditions: for Hygroscopicity (GVS): 0-90% RH; for Hygroscopicity (GVS) / GVS mass uptake, equivalent of water / GVS mass uptake: 25° C.; for XRPD Post-GVS: after GVS isotherm; for GVS mass uptake, equivalent of water / GVS mass uptake: between 0 and 90% RH
Experimental: Gravimetric Vapor Sorption (GVS). Sorption isotherms were obtained using a SMS DVS Intrinsic moisture sorption analyzer, controlled by DVS Intrinsic Control software. The sample temperature was maintained at 25° C. by the instrument controls. The humidity was controlled by mixing streams of dry and wet nitrogen, with a total flow rate of 200 ml/min. The relative humidity was measured by a calibrated Rotronic probe (dynamic range of 1.0-100% RH), located near the sample. The weight change, (mass relaxation) of the sample as a function of % RH was constantly monitored by a microbalance (accuracy ±0.005 mg). Typically, 5-30 mg of sample was placed in a tared mesh stainless steel basket under ambient conditions. The sample was loaded and unloaded at 40% RH and 25° C. (typical room conditions). A moisture sorption isotherm was performed as outlined below (2 scans per complete cycle). The standard isotherm was performed at 25° C. at 10% RH intervals over a 0-90% RH range. Typically, a double cycle (4 scans) was carried out. Data analysis was carried out within Microsoft Excel using the DVS Analysis Suite. [table] The sample was recovered after completion of the isotherm and re-analyzed by XRPD.

logP [3]: 4.19
solubility ([4]; pH 4, aqueous buffer): 1.4 µg/mL (≈ 2.92 µM)
solubility ([4]; pH 7.4, aqueous buffer): 854 µg/mL (≈ 1780 µM)
solubility ([4]; pH 9, aqueous buffer): 833 µg/mL (≈ 1740 µM)
pKa (pKa of PP-001): 2.23
Solubility for lyophilization ([5]; 1,4-dioxane): soluble
Solubility for lyophilization ([5]; THF:water (70:30)): soluble
Solubility in solvents ([6]; 25° C., dissolution in volumes <80 vol, in 15 of the solvents tested): good solubility
Solubility in solvents ([6]; 50° C., IPA, 1-propanol, ACN, MeOH:water (3%), MeOH:water (5%), EtOH:water (5%), IPA:water (5%) and IPA:water (25%)): Clear solutions
Solubility in solvents ([6]; aprotic, polar solvents such as THF, DMSO and acetone): higher solubility
Solubility in solvents ([6]; heptane, toluene, chloroform and water, up to 80 vol, heated to 50° C.): remained suspensions
bioavailability (Oral bioavailability): 15 to 30%
Structure (SMILES): O=C(Nc1c(F)c(F)c(-c2cccc(OC(F)(F)F)c2)c(F)c1F)c1ccsc1C(=O)O [PP-001, 3-(2,3,5,6-tetrafluoro-3′-trifluoromethoxy-biphenyl-4-ylcarbamoyl)-thiophene-2-carboxylic acid]
Stability (stable for) [1]: Stable for >6 h in artificial gastric juice, simulated
Stability (stable for) ([2]; pH 2 (HCl)): Stable for >16 h at pH 2 (HCl), pH 7.4 (trisbuffer),
Stability (stable for) ([2]; pH 7.4 (tris buffer)): Stable for >16 h at pH 2 (HCl), pH 7.4 (trisbuffer),
Stability (stable for) ([2]; pH 8.5 (tris buffer)): Stable for >16 h at pH 2 (HCl), pH 7.4 (trisbuffer),
Stability (stable for) ([7]; PBS pH 7.4): Stable for >6 h in artificial gastric juice, simulated
Stability (stable for) ([7]; artificial gastric juice): Stable for >6 h in artificial gastric juice, simulated
Stability (stable for) ([7]; simulated intestinal fluid): Stable for >6 h in artificial gastric juice, simulated

XRPD post-IDR [8]: Unchanged
Dissolution rate (pH 7.4 buffer) [8]: 0.071 mg/min/cm^2
XRPD after storage ([10]; 40° C./75% RH, 8 days, listed as PP-001 Form A): Unchanged
solubility thermodynamic at 24 h ([11]; FaSSIF, 25 °C, pH 6.4, fassif, thermodynamic from solid, FaSSIF, 25° C., 24 hours, read-out: Thermodynamic solubility (TS) in FaSSIF): 760 µg/mL (≈ 1590 µM)
XRPD post-TS (residual solid) [11]: Unchanged, residual
Hygroscopicity (GVS) ([12]; listed as PP-001 Form A): mass uptake. Sample is non- hygroscopic
XRPD Post-GVS ([12]; listed as PP-001 Form A): Unchanged
GVS mass uptake, equivalent of water [12]: 0.03 mol
GVS mass uptake ([12]; listed as PP-001 Form A): 0.12 wt %
Structure (SMILES): O=C(Nc1c(F)c(F)c(-c2cccc(OC(F)(F)F)c2)c(F)c1F)c1ccsc1C(=O)O [Form A, 3-(2,3,5,6-tetrafluoro-3′-trifluoromethoxy-biphenyl-4-ylcarbamoyl)-thiophene-2-carboxylic acid]
Relative thermodynamic stability of the forms [9]: thermodynamically more stable form; also recorded: preferred form over all conditions and solvents tested
XRPD after storage ([10]; 25° C./97% RH, 8 days, listed as PP-001 Form A): a small peak was gained at 8.1 2θ angle and a loss of a small peak at 17.6 2θ angle; also recorded: Small peak gain at 8.1 2Θ and a loss of small peaket 17.6
XRPD post-TS (residual solid) ([11]; listed as PP-001 Form A): largely unchanged; also recorded: XRPD unchanged in form plus NaCl reference peaks

XRPD post-IDR [8]: Unchanged
Dissolution rate (pH 7.4 buffer) [8]: 0.15 mg/min/cm^2
HPLC purity after storage ([10]; 25° C./97% RH, 7 days): 99.4%
XRPD after storage ([10]; 25° C./97% RH, 7 days): no observable changes
XRPD after storage ([10]; 25° C./97% RH, 7 days, listed as PP-001 Form B): Unchanged
HPLC purity after storage ([10]; 40° C./75% RH, 7 days): 99.6%
XRPD after storage ([10]; 40° C./75% RH, 7 days): no observable changes
XRPD after storage ([10]; 40° C./75% RH, 7 days, listed as PP-001 Form B): Unchanged
Thermodynamic solubility (TS) in FaSSIF ([11]; FaSSIF, 25° C., 24 hours): 930 µg/mL
XRPD post-TS (residual solid) [11]: Unchanged, residual
Hygroscopicity (GVS) [12]: non-hygroscopic
XRPD Post-GVS [12]: unchanged
XRPD Post-GVS ([12]; listed as PP-001 Form B): Unchanged
GVS mass uptake [12]: 0.10 wt %
GVS mass uptake, equivalent of water [12]: 0.03 mol
GVS mass uptake ([12]; listed as PP-001 Form B): 0.10 wt %
Structure (SMILES): O=C(Nc1c(F)c(F)c(-c2cccc(OC(F)(F)F)c2)c(F)c1F)c1ccsc1C(=O)O [Form B, 3-(2,3,5,6-tetrafluoro-3′-trifluoromethoxy-biphenyl-4-ylcarbamoyl)-thiophene-2-carboxylic acid]

Reference: patent publication US12209073B2, “Polymorphs of a dihydroorotate dehydrogenase (DHOD) inhibitor” (KIORA PHARMACEUTICALS GmbH, priority 2022, dated 2025)
